According to patent publication US9163021B2, “Pyrrolo[3,2-c]pyridine tropomyosin-related kinase inhibitors” (Pfizer Limited, priority 2012, dated 2015):

Biological target: TRKA (Homo sapiens (Human), UniProt P04629)
Experiment: Isolated TRK enzyme assay (HTRF KinEASE-TK), PV3144 TrkA enzyme assay
Type: biochemical
Details: arithmetic mean where more than one reading
Protocol: Isolated TRK Enzyme assays use the HTRF KinEASE-TK kit (Cisbio Cat#62TK0PEJ) with recombinant His-tagged cytoplasmic domains of each TRK receptor sourced from Invitrogen (see table below). This activity-assay measures the phosphorylation of tyrosine residues within a substrate from the HTRF kit which has been validated by Cisbio for a variety of tyrosine kinases including the TRK receptors.
0.5 mM stock solutions of test compounds are prepared and serially diluted in 100% DMSO. A standard curve using the compound of Example 135 disclosed in WO2005/116035 of 150 uM is also prepared on each test plate. High percentage effect (HPE) is defined by 150 uM (using the compound of Example 135 as disclosed in WO2005/116035) and 0% effect (ZPE) is defined by 100% DMSO. Greiner low volume black plates containing 0.2 ul of serially diluted compound, standard and HPE/ZPE are created using the Bravo nanoliter dispenser.
1× enzyme buffer is prepared from 5× Enzymatic Buffer from the Cisbio KinEASE TK kit using MilliQ water. The buffer is then supplemented with 10 mM MgCI and 2 mM DTT (both from Sigma). In the case of TRKB, the buffer is also supplemented with 125 nM Supplement Enzymatic Buffer (SEB) from the Cisbio kit.
2× FAC of enzyme and 2× FAC ATP diluted in 1× complete enzyme buffer is incubated at room temperature for 20 minutes to preactivate the enzyme. Following this preactivation step, 5 ul/well of enzyme+ATP mix is added using a Multidrop Micro to the assay plate, spotted with 0.2 ul 100% DMSO compound. This is left for 20 mins at room temperature before adding 5 ul of 2 uM TK-substrate-Biotin (from the Cisbio kit) diluted in 1× enzyme buffer (1 uM FAC) using the Multidrop Micro. The reaction is incubated at room temperature for the optimized assay reaction time (see table). The reaction is stopped by adding 10 ul/well HTRF Detection Buffer containing 0.25 uM Streptavidin-XL665 (0.125 uM FAC) and 1:200 TK Antibody-Cryptate using a Multidrop.
After the Detection Reagent addition, plates are covered and incubated at room temperature for 60 minutes. HTRF signal is read using an Envision reader, measured as a ratio of emissions at two different wavelengths, 620 nm and 665 nm. […] Test compound data are expressed as percentage inhibition defined by HPE and ZPE values for each plate. Percentage inhibition in the presence of test compound is plotted against compound concentration on a log scale to determine an IC50 from the resultant sigmoid curve.
Where more than one reading was taken, the arithmetic mean is presented.

Chain of TRKA (P04629 441-796): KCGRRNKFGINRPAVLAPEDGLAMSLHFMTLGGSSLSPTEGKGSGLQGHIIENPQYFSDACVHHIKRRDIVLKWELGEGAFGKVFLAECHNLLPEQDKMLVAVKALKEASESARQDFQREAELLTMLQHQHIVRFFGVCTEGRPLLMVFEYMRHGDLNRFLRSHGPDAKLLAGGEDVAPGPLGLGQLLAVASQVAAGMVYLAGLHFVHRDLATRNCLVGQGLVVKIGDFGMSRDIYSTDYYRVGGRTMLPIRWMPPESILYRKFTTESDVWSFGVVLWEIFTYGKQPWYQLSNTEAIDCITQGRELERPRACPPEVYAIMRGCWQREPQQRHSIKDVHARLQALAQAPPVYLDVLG

CC(CO)n1cc(C(=O)c2cncc(NC(=O)Cc3ccc(Cl)cc3)c2)c2cncc(F)c21 (single isomer, unassigned) [Example 206, 2-(4-chlorophenyl)-N-(5-{[7-fluoro-1-(1-hydroxypropan-2-yl)-1H-pyrrolo[3,2-c]pyridin-3-yl]carbonyl}pyridin-3-yl)acetamide]
IC50: 20.7 nM

CC(CO)n1cc(C(=O)c2cncc(NC(=O)Cn3cc(C4CC4)nn3)c2)c2cncc(F)c21 (single isomer, unassigned) [Example 207, 2-(4-cyclopropyl-1H-1,2,3-triazol-1-yl)-N-(5-{[7-fluoro-1-(1-hydroxypropan-2-yl)-1H-pyrrolo[3,2-c]pyridin-3-yl]carbonyl}pyridin-3-yl)acetamide]
IC50: 179 nM

CC(CO)n1cc(C(=O)c2cncc(NC(=O)Cn3ccc(C(F)(F)F)n3)c2)c2cncc(F)c21 (single isomer, unassigned) [Example 208, N-(5-{[7-fluoro-1-(1-hydroxypropan-2-yl)-1H-pyrrolo[3,2-c]pyridin-3-yl]carbonyl}pyridin-3-yl)-2-[3-(trifluoromethyl)-1H-pyrazol-1-yl]acetamide]
IC50: 29.7 nM

CC(CO)n1cc(C(=O)c2cncc(NC(=O)Cn3ccc(C(F)(F)F)n3)c2)c2cncc(F)c21 (single isomer, unassigned) [Example 210, N-(5-{[7-fluoro-1-(1-hydroxypropan-2-yl)-1H-pyrrolo[3,2-c]pyridin-3-yl]carbonyl}pyridin-3-yl)-2-[3-(trifluoromethyl)-1H-pyrazol-1-yl]acetamide]
IC50: 45.6 nM

CC(CO)n1cc(C(=O)c2cncc(NC(=O)Cc3ccc(Cl)cn3)c2)c2cncc(F)c21 (single isomer, unassigned) [Example 211, 2-(5-chloropyridin-2-yl)-N-(5-{[7-fluoro-1-(1-hydroxypropan-2-yl)-1H-pyrrolo[3,2-c]pyridin-3-yl]carbonyl}pyridin-3-yl)acetamide]
IC50: 93.3 nM

CC(CO)n1cc(C(=O)c2cncc(NC(=O)Cc3ccc(F)cn3)c2)c2cncc(F)c21 (single isomer, unassigned) [Example 212, N-(5-{[7-fluoro-1-(1-hydroxypropan-2-yl)-1H-pyrrolo[3,2-c]pyridin-3-yl]carbonyl}pyridin-3-yl)-2-(5-fluoropyridin-2-yl)acetamide]
IC50: 479 nM

CC(CO)n1cc(C(=O)c2cncc(NC(=O)Cc3ccc(C#N)cc3)c2)c2cncc(F)c21 (single isomer, unassigned) [Example 213, 2-(4-cyanophenyl)-N-(5-{[7-fluoro-1-(1-hydroxypropan-2-yl)-1H-pyrrolo[3,2-c]pyridin-3-yl]carbonyl}pyridin-3-yl)acetamide]
IC50: 252 nM

CC(CO)n1cc(C(=O)c2cncc(NC(=O)Cn3ccc(C4CC4)n3)c2)c2cncc(F)c21 (single isomer, unassigned) [Example 215, 2-(3-cyclopropyl-1H-pyrazol-1-yl)-N-(5-{[7-fluoro-1-(1-hydroxypropan-2-yl)-1H-pyrrolo[3,2-c]pyridin-3-yl]carbonyl}pyridin-3-yl)acetamide]
IC50: 62 nM

Cc1cc(C(F)(F)F)nn1CC(=O)Nc1cncc(C(=O)c2cn(C(C)CO)c3c(F)cncc23)c1 (single isomer, unassigned) [Example 216, N-(5-{[7-fluoro-1-(1-hydroxypropan-2-yl)-1H-pyrrolo[3,2-c]pyridin-3-yl]carbonyl}pyridin-3-yl)-2-[5-methyl-3-(trifluoromethyl)-1H-pyrazol-1-yl]acetamide]
IC50: 20.4 nM

CC(CO)n1cc(C(=O)c2cncc(NC(=O)Cc3ccc(C#N)cc3)c2)c2cncc(F)c21 (single isomer, unassigned) [Example 217, 2-(4-cyanophenyl)-N-(5-{[7-fluoro-1-(1-hydroxypropan-2-yl)-1H-pyrrolo[3,2-c]pyridin-3-yl]carbonyl}pyridin-3-yl)acetamide]
IC50: 418 nM
